Experimental data as given in ChEMBL document CHEMBL1131977, “Synthesis and in vitro activity of new oxazolidinone antibacterial agents having substituted isoxazoles” (1999).
Converted amounts (≈) assume the structure as drawn.

What was measured:
Format in all cases: functional
Staphylococcus aureus [1] = assay: In vitro antibacterial activity against methicillin-susceptible Staphylococcus aureus (MSSA) C2214.
Staphylococcus aureus [2] = assay: In vitro antibacterial activity against ciprofloxacin-resistant Staphylococcus aureus (CRSA) C6043.
[3] = tested on: Staphylococcus epidermidis; assay: In vitro antibacterial activity against Staphylococcus epidermis (S.e.1) […].
Staphylococcus aureus [4] = assay: In vitro antibacterial activity against methicillin-resistant Staphylococcus aureus (MRSA) C6068.
Enterococcus faecalis = assay: In vitro antibacterial activity against Enterococcus faecalis C6291 (E.f.1).
Streptococcus pyogenes [5] = assay: In vitro antibacterial activity against Streptococcus pyogenes ATCC 8668 (S.p.1).
Streptococcus pyogenes [6] = assay: In vitro antibacterial activity against Streptococcus pyogenes C6003 (S.p.2).
[7] = tested on: Staphylococcus epidermidis; assay: In vitro antibacterial activity against Staphylococcus epidermis (S.e.2) C2235.
Staphylococcus aureus [8] = assay: In vitro antibacterial activity against Staphylococcus aureus (S. a.) ATCC 29213.
Enterococcus faecium [9] = assay: In vitro antibacterial activity against vancomycin-resistant Enterococcus faecium C6487 (VRE).
Enterococcus faecium [10] = assay: In vitro antibacterial activity against Enterococcus faecium C6301 (E.f.2).

CC(=O)NC[C@H]1CN(c2ccc(N3CCN(C(=O)c4ccno4)CC3)c(F)c2)C(=O)O1
MIC (Staphylococcus aureus [1]): 2 µg/mL (≈ 4.64 µM)
MIC (Staphylococcus aureus [2]): 2 µg/mL (≈ 4.64 µM)
MIC [3]: 1 µg/mL (≈ 2.32 µM)
MIC (Staphylococcus aureus [4]): 1 µg/mL (≈ 2.32 µM)
MIC (Enterococcus faecalis): 2 µg/mL (≈ 4.64 µM)
MIC (Streptococcus pyogenes [5]): 0.5 µg/mL (≈ 1.16 µM)
MIC (Streptococcus pyogenes [6]): 0.5 µg/mL (≈ 1.16 µM)
MIC [7]: 1 µg/mL (≈ 2.32 µM)
MIC (Staphylococcus aureus [8]): 2 µg/mL (≈ 4.64 µM)
MIC (Enterococcus faecium [9]): 22 µg/mL (≈ 51 µM)
MIC (Enterococcus faecium [10]): 1 µg/mL (≈ 2.32 µM)

CC(=O)NC[C@H]1CN(c2ccc(N3CCN(C(=O)c4cc(C)no4)CC3)c(F)c2)C(=O)O1
MIC (Staphylococcus aureus [1]): 8 µg/mL (≈ 18 µM)
MIC (Staphylococcus aureus [2]): 4 µg/mL (≈ 8.98 µM)
MIC [3]: 0.5 µg/mL (≈ 1.12 µM)
MIC (Staphylococcus aureus [4]): 2 µg/mL (≈ 4.49 µM)
MIC (Enterococcus faecalis): 4 µg/mL (≈ 8.98 µM)
MIC (Streptococcus pyogenes [5]): 0.5 µg/mL (≈ 1.12 µM)
MIC (Streptococcus pyogenes [6]): 0.5 µg/mL (≈ 1.12 µM)
MIC [7]: 1 µg/mL (≈ 2.24 µM)
MIC (Staphylococcus aureus [8]): 4 µg/mL (≈ 8.98 µM)
MIC (Enterococcus faecium [9]): 2 µg/mL (≈ 4.49 µM)
MIC (Enterococcus faecium [10]): 2 µg/mL (≈ 4.49 µM)

CC(=O)NC[C@H]1CN(c2ccc(N3CCN(C(=O)c4cc(C(=O)N(C)C)no4)CC3)c(F)c2)C(=O)O1
MIC (Staphylococcus aureus [1]): 8 µg/mL (≈ 15.9 µM)
MIC (Staphylococcus aureus [2]): 8 µg/mL (≈ 15.9 µM)
MIC [3]: 2 µg/mL (≈ 3.98 µM)
MIC (Staphylococcus aureus [4]): 2 µg/mL (≈ 3.98 µM)
MIC (Enterococcus faecalis): 4 µg/mL (≈ 7.96 µM)
MIC (Streptococcus pyogenes [5]): 1 µg/mL (≈ 1.99 µM)
MIC (Streptococcus pyogenes [6]): 1 µg/mL (≈ 1.99 µM)
MIC [7]: 2 µg/mL (≈ 3.98 µM)
MIC (Staphylococcus aureus [8]): 8 µg/mL (≈ 15.9 µM)
MIC (Enterococcus faecium [9]): 4 µg/mL (≈ 7.96 µM)
MIC (Enterococcus faecium [10]): 4 µg/mL (≈ 7.96 µM)

CC(=O)NC[C@H]1CN(c2ccc(N3CCN(C(=O)c4cccs4)CC3)c(F)c2)C(=O)O1
MIC (Staphylococcus aureus [1]): 2 µg/mL (≈ 4.48 µM)
MIC (Staphylococcus aureus [2]): 2 µg/mL (≈ 4.48 µM)
MIC [3]: 0.5 µg/mL (≈ 1.12 µM)
MIC (Staphylococcus aureus [4]): 1 µg/mL (≈ 2.24 µM)
MIC (Enterococcus faecalis): 2 µg/mL (≈ 4.48 µM)
MIC (Streptococcus pyogenes [5]): 1 µg/mL (≈ 2.24 µM)
MIC (Streptococcus pyogenes [6]): 1 µg/mL (≈ 2.24 µM)
MIC [7]: 1 µg/mL (≈ 2.24 µM)
MIC (Staphylococcus aureus [8]): 2 µg/mL (≈ 4.48 µM)
MIC (Enterococcus faecium [9]): 2 µg/mL (≈ 4.48 µM)
MIC (Enterococcus faecium [10]): 2 µg/mL (≈ 4.48 µM)

COc1cc(CN2CCN(c3ccc(N4C[C@H](CNC(C)=O)OC4=O)cc3F)CC2)on1
MIC (Staphylococcus aureus [1]): 8 µg/mL (≈ 17.9 µM)
MIC (Staphylococcus aureus [2]): 8 µg/mL (≈ 17.9 µM)
MIC [3]: 2 µg/mL (≈ 4.47 µM)
MIC (Staphylococcus aureus [4]): 4 µg/mL (≈ 8.94 µM)
MIC (Enterococcus faecalis): 8 µg/mL (≈ 17.9 µM)
MIC (Streptococcus pyogenes [5]): 1 µg/mL (≈ 2.23 µM)
MIC (Streptococcus pyogenes [6]): 1 µg/mL (≈ 2.23 µM)
MIC [7]: 4 µg/mL (≈ 8.94 µM)
MIC (Staphylococcus aureus [8]): 8 µg/mL (≈ 17.9 µM)
MIC (Enterococcus faecium [9]): 4 µg/mL (≈ 8.94 µM)
MIC (Enterococcus faecium [10]): 4 µg/mL (≈ 8.94 µM)

CC(=O)NC[C@H]1CN(c2ccc(N3CCN(C(=O)c4cc(-c5cnsn5)no4)CC3)c(F)c2)C(=O)O1
MIC (Staphylococcus aureus [1]): 4 µg/mL (≈ 7.76 µM)
MIC (Staphylococcus aureus [2]): 2 µg/mL (≈ 3.88 µM)
MIC [3]: 1 µg/mL (≈ 1.94 µM)
MIC (Staphylococcus aureus [4]): 1 µg/mL (≈ 1.94 µM)
MIC (Enterococcus faecalis): 2 µg/mL (≈ 3.88 µM)
MIC (Streptococcus pyogenes [5]): 0.5 µg/mL (≈ 0.97 µM)
MIC (Streptococcus pyogenes [6]): 0.5 µg/mL (≈ 0.97 µM)
MIC [7]: 1 µg/mL (≈ 1.94 µM)
MIC (Staphylococcus aureus [8]): 4 µg/mL (≈ 7.76 µM)
MIC (Enterococcus faecium [9]): 1 µg/mL (≈ 1.94 µM)
MIC (Enterococcus faecium [10]): 2 µg/mL (≈ 3.88 µM)

CC(=O)NC[C@H]1CN(c2ccc(N3CCN(C(=O)c4cc(C(N)=O)no4)CC3)c(F)c2)C(=O)O1
MIC (Staphylococcus aureus [1]): 2 µg/mL (≈ 4.22 µM)
MIC (Staphylococcus aureus [2]): 2 µg/mL (≈ 4.22 µM)
MIC [3]: 0.5 µg/mL (≈ 1.05 µM)
MIC (Staphylococcus aureus [4]): 1 µg/mL (≈ 2.11 µM)
MIC (Enterococcus faecalis): 1 µg/mL (≈ 2.11 µM)
MIC (Streptococcus pyogenes [5]): 0.25 µg/mL (≈ 0.527 µM)
MIC (Streptococcus pyogenes [6]): 0.25 µg/mL (≈ 0.527 µM)
MIC [7]: 0.5 µg/mL (≈ 1.05 µM)
MIC (Staphylococcus aureus [8]): 2 µg/mL (≈ 4.22 µM)
MIC (Enterococcus faecium [9]): 1 µg/mL (≈ 2.11 µM)
MIC (Enterococcus faecium [10]): 1 µg/mL (≈ 2.11 µM)

CC(=O)NC[C@H]1CN(c2ccc(N3CCN(Cc4cc(-c5ccc(Oc6ccccc6)cc5)no4)CC3)c(F)c2)C(=O)O1
MIC (Staphylococcus aureus [1]): 8 µg/mL (≈ 13.7 µM)
MIC (Staphylococcus aureus [2]): 8 µg/mL (≈ 13.7 µM)
MIC [3]: 2 µg/mL (≈ 3.42 µM)
MIC (Staphylococcus aureus [4]): 4 µg/mL (≈ 6.83 µM)
MIC (Enterococcus faecalis): 4 µg/mL (≈ 6.83 µM)
MIC (Streptococcus pyogenes [5]): 1 µg/mL (≈ 1.71 µM)
MIC (Streptococcus pyogenes [6]): 1 µg/mL (≈ 1.71 µM)
MIC [7]: 4 µg/mL (≈ 6.83 µM)
MIC (Staphylococcus aureus [8]): 8 µg/mL (≈ 13.7 µM)
MIC (Enterococcus faecium [9]): 4 µg/mL (≈ 6.83 µM)
MIC (Enterococcus faecium [10]): 4 µg/mL (≈ 6.83 µM)

COc1cc(C(=O)N2CCN(c3ccc(N4C[C@H](CNC(C)=O)OC4=O)cc3F)CC2)on1
MIC (Staphylococcus aureus [1]): 4 µg/mL (≈ 8.67 µM)
MIC (Staphylococcus aureus [2]): 4 µg/mL (≈ 8.67 µM)
MIC [3]: 0.5 µg/mL (≈ 1.08 µM)
MIC (Staphylococcus aureus [4]): 2 µg/mL (≈ 4.33 µM)
MIC (Enterococcus faecalis): 2 µg/mL (≈ 4.33 µM)
MIC (Streptococcus pyogenes [5]): 0.5 µg/mL (≈ 1.08 µM)
MIC (Streptococcus pyogenes [6]): 0.5 µg/mL (≈ 1.08 µM)
MIC [7]: 0.5 µg/mL (≈ 1.08 µM)
MIC (Staphylococcus aureus [8]): 4 µg/mL (≈ 8.67 µM)
MIC (Enterococcus faecium [9]): 2 µg/mL (≈ 4.33 µM)
MIC (Enterococcus faecium [10]): 2 µg/mL (≈ 4.33 µM)
